Biological target: Cav2.3 (Homo sapiens, UniProt Q15878)
Experiment: Human Cav2.3 channel calcium-influx assay
Assay type: cell-based
Conditions: HEK-293 T-Rex/Kir2.1/Cav2.3e-β4-α2δ1 cells, Fluo8 fluorescence, without pluronic acid; read-out: Cav2.3 (pIC50) (converted)
Experimental: HEK-293 T-Rex cells were transfected with pcDNA3.1-Kir2.1 to generate a stable cell line. After antibiotic selection, the obtained stable pools were analysed using FLIPR^TETRA (membrane potential assay), and a limiting dilution was performed and a HEK-293 T-Rex/Kir2.1 clone was selected. The clone was transfected with pcDNA3.1-Cav2.3e and pBud-Cav-β4-α2δ1 to generate a stable cell line where the Cav2.3e expression is inducible. After antibiotic selection, functional clone pool analysis and two successive limiting dilutions, the final clone underwent a qPCR analysis and a biophysical and pharmacological validation using patch-clamp.
A compound plate, containing 10 test compounds in eight-points dose response with n=4, was prepared. Test compounds dose response curves were prepared in automated fashion in 100% DMSO at CyBio Felix and starting from a stock solution in 100% DMSO; a defined volume was serially moved into destination wells pre-filled with the desired DMSO volume; stock solution concentration volumes were dependent on the final compounds concentrations to be tested and the final DMSO content used in the assay. For the assay test compounds dose response curves ranged from 30 μM and half log dilution with 0.3% final DMSO. In order to obtain the 8-points dose response curve all the concentrations were created by starting from a 10 mM DMSO stock solution and then moving 9.5 μL into a destination well pre-filled with 20.5 μL of 100% DMSO and repeating this step seven times. This initial step was done into 96 MTP plates, 10 compounds/plate. One 384 MTP was then reformatted to contain all the 10 compounds at 8 concentrations, quadruplicate data points. This so obtained 384 MTP compound plate served as source plate in a “mother to child” process with a CyBi®-Well dispenser in which 0.7 μL of compounds were moved into a destination plate pre-filled with 57.6 μL of Tyrode's buffer 0 mM K+, thus obtaining 4× concentrated compounds solution. In columns 1-2 and 23-24 the control wells were added. Both “source” compound plate and “destination” compound plate were barcoded and a relationship between the two plates was thus generated.
The day before the experiment, cells were detached by gentle wash with DPBS, followed by 5 min incubation at 37° C. with Trypsin solution. Detached cells were diluted with OptiMEM+Doxycycline at 0.2 μg/mL, counted and plated in Poly-D-Lysine coated black/clear bottom (15.000 c/well in 20 μl/well) by the use of a MATRIX WellMate dispenser. Plates were placed into a humidified incubator at 37° C. with 5% CO2 until the experimental day. 24 h after seeding 10 μL/well of 1.5× Fluo8 NW dye solution prepared in Tyrode's buffer 0 mM K^+ were added on top of the seeding medium. Cell plates were incubated for 40-60 min at RT in the dark. We then Injected off-line 10 μL/well of test compounds and controls 4× concentrated in Tyrode's Buffer 0 mM K+ with the CyBi®-Well instrument. Cell plates were incubated 3 minutes at RT. Finally, we injected 20 μL/well of 3× concentrated activator solution (K20-Na130-Ca2 buffer: 20 mM KCl, 130 mM NaCl, 2 mM CaCl2, 10 mM HEPES, 10 mM Glucose, final concentrations, prepared starting from “KO-Na150-Ca2” and “K150-Na0-Ca2” buffers) at FDSS7000EX instrument and read emitted fluorescence for 130 seconds.
Data analysis was performed with Genedata Screener® software and reported compounds activity as % effect in relation to the normalization standards. The Kinetic Response Value (KRV) is calculated as follows:
KRV=Maximal fluorescence recorded from second 5 to second 130 minus baseline fluorescence, computed as average from second 1 to second 2, of the kinetic trace. The KRV was normalized versus Neutral Controls and Inhibitor Controls in order to obtain the Activity[%] for each well. […] Therefore, the compound activity values were scaled (based on the two references) to a common range (two-point normalization). […]

Sequence of Cav2.3 (Q15878 1-747 limits assumed): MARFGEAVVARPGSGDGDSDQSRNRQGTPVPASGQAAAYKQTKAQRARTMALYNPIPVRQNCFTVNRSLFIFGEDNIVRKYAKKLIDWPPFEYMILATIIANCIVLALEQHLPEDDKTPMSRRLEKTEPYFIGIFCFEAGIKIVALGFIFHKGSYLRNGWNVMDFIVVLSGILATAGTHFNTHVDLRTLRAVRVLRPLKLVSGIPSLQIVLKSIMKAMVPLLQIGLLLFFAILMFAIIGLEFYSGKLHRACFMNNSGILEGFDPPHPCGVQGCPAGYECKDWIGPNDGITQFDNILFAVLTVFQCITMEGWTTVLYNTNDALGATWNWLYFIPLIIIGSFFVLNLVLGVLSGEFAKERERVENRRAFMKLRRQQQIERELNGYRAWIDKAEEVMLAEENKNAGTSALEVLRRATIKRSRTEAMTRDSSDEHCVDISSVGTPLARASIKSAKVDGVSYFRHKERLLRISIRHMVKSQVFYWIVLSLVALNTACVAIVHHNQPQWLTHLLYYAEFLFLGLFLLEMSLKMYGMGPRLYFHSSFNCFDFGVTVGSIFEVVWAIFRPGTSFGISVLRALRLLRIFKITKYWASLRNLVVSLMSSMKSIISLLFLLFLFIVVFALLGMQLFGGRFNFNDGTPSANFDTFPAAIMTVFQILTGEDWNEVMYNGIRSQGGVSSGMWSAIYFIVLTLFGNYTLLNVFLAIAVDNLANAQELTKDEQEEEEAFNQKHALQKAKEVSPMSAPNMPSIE
Sequence of Cav2.3 (Q15878 1126-2313 limits assumed): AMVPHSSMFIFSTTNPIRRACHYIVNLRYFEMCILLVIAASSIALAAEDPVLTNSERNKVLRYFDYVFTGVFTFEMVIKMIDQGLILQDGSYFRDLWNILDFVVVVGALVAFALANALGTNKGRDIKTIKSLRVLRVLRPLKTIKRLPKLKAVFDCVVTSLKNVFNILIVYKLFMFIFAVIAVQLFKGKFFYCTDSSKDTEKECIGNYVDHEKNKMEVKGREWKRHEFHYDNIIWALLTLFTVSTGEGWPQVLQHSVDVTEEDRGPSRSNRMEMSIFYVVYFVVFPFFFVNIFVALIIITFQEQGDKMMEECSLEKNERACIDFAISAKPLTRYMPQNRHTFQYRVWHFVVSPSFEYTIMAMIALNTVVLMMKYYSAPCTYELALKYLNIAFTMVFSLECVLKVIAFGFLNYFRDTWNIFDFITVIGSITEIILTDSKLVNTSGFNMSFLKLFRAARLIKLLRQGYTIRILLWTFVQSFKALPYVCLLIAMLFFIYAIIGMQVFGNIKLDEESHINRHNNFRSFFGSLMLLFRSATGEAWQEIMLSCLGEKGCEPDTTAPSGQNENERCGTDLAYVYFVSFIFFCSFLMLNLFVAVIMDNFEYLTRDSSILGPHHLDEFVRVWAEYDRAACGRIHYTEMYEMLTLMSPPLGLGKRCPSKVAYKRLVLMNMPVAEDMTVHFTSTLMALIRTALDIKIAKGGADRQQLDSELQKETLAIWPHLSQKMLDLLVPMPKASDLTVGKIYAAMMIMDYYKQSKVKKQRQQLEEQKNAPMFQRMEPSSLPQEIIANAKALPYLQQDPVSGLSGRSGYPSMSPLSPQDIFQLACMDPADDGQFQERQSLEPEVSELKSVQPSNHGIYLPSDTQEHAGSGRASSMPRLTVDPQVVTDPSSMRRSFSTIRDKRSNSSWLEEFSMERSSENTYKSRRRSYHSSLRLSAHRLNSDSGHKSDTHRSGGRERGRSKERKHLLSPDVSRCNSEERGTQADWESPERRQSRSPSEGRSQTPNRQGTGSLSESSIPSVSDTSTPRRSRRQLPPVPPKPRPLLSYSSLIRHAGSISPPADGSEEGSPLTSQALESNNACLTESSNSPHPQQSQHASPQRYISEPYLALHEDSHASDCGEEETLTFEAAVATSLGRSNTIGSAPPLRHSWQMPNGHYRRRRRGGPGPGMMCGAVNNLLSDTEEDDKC

IC50 | SMILES
2.69 µM | CC1CC2(CCC2)CN1S(=O)(=O)c1cccs1 (centres unmarked) [Example 102, 7-Methyl-6-(thiophen-2-ylsulfonyl)-6-azaspiro[3.4]octane]
11.2 µM | CC1CC2(CCC2)CN1S(=O)(=O)c1ccc2[nH]c(=O)[nH]c2c1 (centres unmarked) [Example 59, 5-((7-Methyl-6-azaspiro[3.4]octan-6-yl)sulfonyl)-1,3-dihydro-2H-benzo[d]imidazol-2-one]
11.5 µM | CC1CC2(CCC2)CN1S(=O)(=O)c1cc2oc(=O)[nH]c2cc1Cl (single isomer, unassigned) [Example 58, 5-chloro-6-((7-methyl-6-azaspiro[3.4]octan-6-yl)sulfonyl)benzo[d]oxazol-2(3H)-one]
1.32 µM | CC1CC2(CCC2)CN1S(=O)(=O)c1ccc2ccoc2c1 (single isomer, unassigned) [Example 17, 6-(benzofuran-6-ylsulfonyl)-7-methyl-6-azaspiro[3.4]octane]
6.76 µM | CC1CC2(CCC2)CN1S(=O)(=O)c1cc(-c2ccccc2)cs1 (centres unmarked) [Example 44, 7-Methyl-6-((4-phenylthiophen-2-yl)sulfonyl)-6-azaspiro[3.4]octane]
8.32 µM | CC(=O)Nc1nnc(S(=O)(=O)N2CC3(CCC3)CC2C)s1 (centres unmarked) [Example 40, N-(5-((7-methyl-6-azaspiro[3.4]octan-6-yl)sulfonyl)-1,3,4-thiadiazol-2-yl)acetamide]
7.94 µM | Cc1ccc(S(=O)(=O)N2CC3(CCC3)CC2C)s1 (centres unmarked) [Example 76, 7-Methyl-6-((5-methylthiophen-2-yl)sulfonyl)-6-azaspiro[3.4]octane]
14.5 µM | CCC1CC2(CCCC2)CN1S(=O)(=O)c1cccs1 (single isomer, unassigned) [Example 98, 3-Ethyl-2-(thiophen-2-ylsulfonyl)-2-azaspiro[4.4]nonane]
7.76 µM | Cc1cnc(S(=O)(=O)N2CC3(CCC3)CC2C)s1 (centres unmarked) [Example 95, 5-Methyl-2-((7-methyl-6-azaspiro[3.4]octan-6-yl)sulfonyl)thiazole]
15.8 µM | CC1CC2(CCC2)CN1S(=O)(=O)c1ccccn1 (centres unmarked) [Example 48, 7-Methyl-6-(pyridin-2-ylsulfonyl)-6-azaspiro[3.4]octane]
9.55 µM | CCC1CC2(CCC2)CN1S(=O)(=O)c1cccs1 (single isomer, unassigned) [Example 70, 7-Ethyl-6-(thiophen-2-ylsulfonyl)-6-azaspiro[3.4]octane]
39.8 µM | CC1CC2(CCC2)CN1S(=O)(=O)c1ccc2oncc2c1 (centres unmarked) [Example 68, 5-((7-Methyl-6-azaspiro[3.4]octan-6-yl)sulfonyl)benzo[d]isoxazole]
4.07 µM | Cc1ccc(S(=O)(=O)N2CC3(CCC3)CC2C)o1 (single isomer, unassigned) [Example 55, 7-methyl-6-((5-methylfuran-2-yl)sulfonyl)-6-azaspiro[3.4]octane]
1.35 µM | COc1cc(S(=O)(=O)N2CC3(CCC3)CC2C)ccn1 (centres unmarked) [Example 86, 6-((2-Methoxypyridin-4-yl)sulfonyl)-7-methyl-6-azaspiro[3.4]octane]
2.95 µM | CC1CC2(CCC2)CN1S(=O)(=O)c1ccc2c(c1)CCN(Cc1ccccc1)C2 (centres unmarked) [Example 25, 2-Benzyl-6-((7-methyl-6-azaspiro[3.4]octan-6-yl)sulfonyl)-1,2,3,4-tetrahydroisoquinoline]
8.91 µM | CC1CC2(CCC2)CN1S(=O)(=O)c1cncnc1 (centres unmarked) [Example 83, 7-Methyl-6-(pyrimidin-5-ylsulfonyl)-6-azaspiro[3.4]octane]
10 µM | COCc1ncsc1S(=O)(=O)N1CC2(CCC2)CC1C (centres unmarked) [Example 89, 4-(Methoxymethyl)-5-((7-methyl-6-azaspiro[3.4]octan-6-yl)sulfonyl)thiazole]
37.2 µM | O=S(=O)(c1cccs1)N1CC2(CCCC2)CC1C1CCCCC1 (centres unmarked) [Example 75, 3-Cyclohexyl-2-(thiophen-2-ylsulfonyl)-2-azaspiro[4.4]nonane]
7.24 µM | CC1CC2(CCC2)CN1S(=O)(=O)c1ccc2c(c1)OCCO2 (single isomer, unassigned) [Example 6, 6-((2,3-Dihydrobenzo[b][1,4]dioxin-6-yl)sulfonyl)-7-methyl-6-azaspiro[3.4]octane]
3.72 µM | CCc1ncsc1S(=O)(=O)N1CC2(CCC2)CC1C (centres unmarked) [Example 64, 4-Ethyl-5-((7-methyl-6-azaspiro[3.4]octan-6-yl)sulfonyl)thiazole]
10.7 µM | Cc1ccnc2cc(S(=O)(=O)N3CC4(CCC4)CC3C)ccc12 (single isomer, unassigned) [Example 82, 4-methyl-7-((7-methyl-6-azaspiro[3.4]octan-6-yl)sulfonyl)quinoline]
4.27 µM | CC1CC2(CCC2)CN1S(=O)(=O)c1ccc2c(c1)CN(C(=O)C(F)(F)F)CC2 (single isomer, unassigned) [Example 20, 2,2,2-trifluoro-1-(7-((7-methyl-6-azaspiro[3.4]octan-6-yl)sulfonyl)-3,4-dihydroisoquinolin-2(1H)-yl)ethan-1-one]
2.19 µM | CC1CC2(CCC2)CN1S(=O)(=O)c1ccc2c(c1)OCCO2 (single isomer, unassigned) [Example 7, 6-((2,3-dihydrobenzo[b][1,4]dioxin-6-yl)sulfonyl)-7-methyl-6-azaspiro[3.4]octane]
7.94 µM | CC1CC2(CCC2)CN1S(=O)(=O)c1ccc(C#N)s1 (single isomer, unassigned) [Example 9, 5-((7-Methyl-6-azaspiro[3.4]octan-6-yl)sulfonyl)thiophene-2-carbonitrile]
5.13 µM | CC1CC2(CCC2)CN1S(=O)(=O)c1cc2oc(=O)[nH]c2cc1Cl (single isomer, unassigned) [Example 57, 5-Chloro-6-((7-methyl-6-azaspiro[3.4]octan-6-yl)sulfonyl)benzo[d]oxazol-2(3H)-one]
2.19 µM | Cc1nc(C)c(S(=O)(=O)N2CC3(CCC3)CC2C)s1 (single isomer, unassigned) [Example 106, 2,4-Dimethyl-5-((7-methyl-6-azaspiro[3.4]octan-6-yl)sulfonyl)thiazole]
6.03 µM | CC1CC2(CCN1S(=O)(=O)c1cccs1)CC2 (centres unmarked) [Example 74, 5-Methyl-6-(thiophen-2-ylsulfonyl)-6-azaspiro[2.5]octane]
9.77 µM | CC1CC2(CCC2)CN1S(=O)(=O)c1nc2ccccc2s1 (centres unmarked) [Example 67, 2-((7-Methyl-6-azaspiro [3.4]octan-6-yl)sulfonyl)benzo[d]thiazole]
1.62 µM | CCOC(=O)N1CCc2ccc(S(=O)(=O)N3CC4(CCC4)CC3C)cc2C1 (single isomer, unassigned) [Example 24, Ethyl 7-((7-methyl-6-azaspiro[3.4]octan-6-yl)sulfonyl)-3,4-dihydroisoquinoline-2(1H)-carboxylate]

From patent US20250101003A1, “SPIROCYCLIC CAV2.3 ANTAGONISTS” (LARIO THERAPEUTICS LIMITED, priority 2021, published 2025)
